According to patent US20100204313A1, “Modulation of nerve pain activity by resiniferatoxin and uses thereof” (priority 2007, published 2010):
Entries after “also recorded” stand apart in the source; their conditions may differ.

Key:
[1] = target: T1, TRPV1 (Mus musculus, UniProt Q704Y3); details: mice, cited from earlier work
T1 construct: capsazepine, a selective TRPV1 antagonist, can reduce cerulein-induced pancreatitis in mice; host or cells: living mice, cerulein-induced pancreatitis

[2] = target: T2, TRPV1 (Rattus norvegicus, UniProt O35433); set-up: host or cells: living rats (sensory neurons), TNBS chronic pancreatitis model; details: systemic administration, chronic pancreatitis; cited from earlier work
T2 sequence (O35433 whole entry): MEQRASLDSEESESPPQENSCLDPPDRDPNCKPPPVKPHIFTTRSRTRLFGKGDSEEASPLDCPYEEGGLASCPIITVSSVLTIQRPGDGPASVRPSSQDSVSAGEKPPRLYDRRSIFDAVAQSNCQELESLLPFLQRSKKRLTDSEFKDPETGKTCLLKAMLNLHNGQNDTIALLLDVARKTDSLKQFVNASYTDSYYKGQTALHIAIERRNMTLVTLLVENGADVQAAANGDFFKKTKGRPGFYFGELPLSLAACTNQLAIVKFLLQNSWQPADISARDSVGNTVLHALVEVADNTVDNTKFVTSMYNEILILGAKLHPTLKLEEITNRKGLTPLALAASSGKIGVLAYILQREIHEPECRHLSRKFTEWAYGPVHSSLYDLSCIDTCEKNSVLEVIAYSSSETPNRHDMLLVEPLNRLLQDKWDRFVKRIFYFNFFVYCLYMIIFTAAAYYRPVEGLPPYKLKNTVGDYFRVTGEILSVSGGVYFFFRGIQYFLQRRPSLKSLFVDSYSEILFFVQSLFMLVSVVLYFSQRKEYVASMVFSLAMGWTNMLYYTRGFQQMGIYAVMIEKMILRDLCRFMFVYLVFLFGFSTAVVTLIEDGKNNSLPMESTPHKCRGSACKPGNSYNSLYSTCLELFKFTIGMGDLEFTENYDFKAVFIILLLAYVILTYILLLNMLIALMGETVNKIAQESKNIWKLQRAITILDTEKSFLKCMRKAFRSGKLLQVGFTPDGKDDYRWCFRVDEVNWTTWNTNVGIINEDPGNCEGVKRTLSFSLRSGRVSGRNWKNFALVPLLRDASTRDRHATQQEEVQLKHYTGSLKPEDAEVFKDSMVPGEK

[3] = test system: guinea pig bronchi; details: ex-vivo; sensitive to TRPV1 and tachykinin receptor blockade; cited from earlier work
[4] = test system: gastropancreatic nerves
Description: Capsaicin dose was 0.05 mg/0.3 ml in 40% ethanol for each group (n=8 rats/group).
Transient receptor potential vanilloid type-1 activation on the gastric side of gastropancreatic nerves can trigger axonal reflexes. Based on the known interaction between alcohol and transient receptor potential vanilloid type-1, it is possible that intragastric ethanol might also stimulate these nerves. […] At the same time, there was an intra-pancreatic canula in place and recording electrodes positioned around nerve fibers in the greater splanchnic nerve that were responsive to mechanical stimulation of the pancreas. Five minutes after intragastric ethanol, capsaicin was infused into the pancreatic duct.

[5] = target: T2, TRPV1; details: in vitro, cited from earlier work
[6] = test system: nocifensive behaviors; details: 20% ethanol 1.6 gm/kg 3 times a day for 3 days; current 2, 5 and 10 mA; vs saline TNBS rats; P<0.001
Description: Increasing amounts of electrical current were applied to the pancreas through a previously implanted electrode and the total number of nocifensive behaviors was recorded.
Control TNBS rats received an equal volume of normal saline. The next day the rats were tested for their behavioral response for pain by administering successive application of electrical current at 2, 5 and 10 mA for 5 minutes through a pair of electrodes implanted in the pancreas at the time of TNBS administration.

[7] = test system: TRPV1; details: various tissues, capsazepine-sensitive; cited from earlier work
[8] = test system: guinea pig airways; details: intravenous 221 mg/kg or intragastric 790 mg/kg; capsazepine-sensitive; cited from earlier work
[9] = test system: gastropancreatic nerves; assay: Afferent nerve signaling to colorectal distention after intragastric resiniferatoxin; format: in vivo; details: rat stomach, 4 hours after intragastric resiniferatoxin vs baseline
Description: The top row represents the baseline response. Note the near complete absence of responses 4 hours after intragastric resiniferatoxin.
Resiniferatoxin is the principal active ingredient in the classic drug Euphorbium, the air-dried latex (resin) of the cactus-like plant Euphorbia resinifera. It is an ultra-potent analog of capsaicin and local application causes desensitization without prior excitation of afferent nerves that lasts for several weeks (Neubert et al, 2003; Kissin et al, 2002; Xu et al, 1997; Craft et al, 1995; Avelino et al, 1999; Acs et al, 1997; Abdel-Salam et al, 1994).

[10] = test system: gastric emptying; assay: Gastric emptying of solid foods after local instillation; format: in vivo, rat; details: 100 nM/kg, vs control
Description: These experiments were done in male rats. Resiniferatoxin was instilled at 100 nM/kg body weight, 0.6 microgm/ml, into either the stomach or jejunum. Controls received saline in the stomach. Five weeks later gastric emptying of solid foods was measured. […] The combination of faster emptying and anti-nauseant effect makes it a very appropriate treatment for gastroparesis.

[11] = test system: nociceptors; details: functional denervation of the pancreas; cited from earlier work
[12] = test system: afferent nerves; details: desensitization of afferent nerves; cited from earlier work
[13] = test system: transient receptor potential vanilloid type-1 on gastric branches of dichotomous gastropancreatic nerves; assay: Pancreatic edema (water content) after intragastric infusion with pyloric ligation; format: in vivo; details: intragastric infusion of 1.2 ml of 1.6 μM after pyloric ligation; pancreas harvested 30 minutes later
Description: Capsaicin was infused into the stomach after pyloric ligation and 30 minutes later the pancreas was harvested and water content was measured.
Next, the functional correlate of this anatomical convergence was determined. It was hypothesized that intragastric capsaicin will activate transient receptor potential vanilloid type-1 on gastric branches of dichotomous gastropancreatic nerves and via an axonal reflex result in edema of the pancreas. After pyloric ligation, intragastric infusion of 1.2 ml of 1.6 μM capsaicin was followed 30 minutes later by harvesting of the pancreas and measurement of water content.

T1 sequence (Q704Y3 whole entry): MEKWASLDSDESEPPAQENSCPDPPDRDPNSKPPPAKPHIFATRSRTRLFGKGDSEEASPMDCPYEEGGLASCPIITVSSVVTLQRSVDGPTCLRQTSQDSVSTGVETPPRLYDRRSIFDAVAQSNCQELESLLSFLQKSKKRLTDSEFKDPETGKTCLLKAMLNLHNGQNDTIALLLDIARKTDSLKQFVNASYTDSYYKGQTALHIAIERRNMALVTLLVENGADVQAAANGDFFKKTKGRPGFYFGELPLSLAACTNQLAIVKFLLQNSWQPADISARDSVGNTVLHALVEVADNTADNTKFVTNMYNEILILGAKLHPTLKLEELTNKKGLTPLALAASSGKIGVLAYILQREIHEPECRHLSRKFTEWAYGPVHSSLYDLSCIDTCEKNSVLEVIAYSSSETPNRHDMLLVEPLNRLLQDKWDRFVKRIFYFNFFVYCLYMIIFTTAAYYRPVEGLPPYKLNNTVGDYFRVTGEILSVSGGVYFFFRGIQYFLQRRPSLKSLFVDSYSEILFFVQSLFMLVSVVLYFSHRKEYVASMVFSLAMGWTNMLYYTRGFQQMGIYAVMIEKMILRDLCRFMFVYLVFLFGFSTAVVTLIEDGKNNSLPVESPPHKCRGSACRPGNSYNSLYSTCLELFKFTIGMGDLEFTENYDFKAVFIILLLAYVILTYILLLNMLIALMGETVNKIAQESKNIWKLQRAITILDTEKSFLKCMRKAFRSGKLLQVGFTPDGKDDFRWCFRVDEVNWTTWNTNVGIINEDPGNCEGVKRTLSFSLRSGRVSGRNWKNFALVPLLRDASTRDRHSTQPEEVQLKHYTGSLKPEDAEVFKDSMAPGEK

SMILES: Oc1cc2c(cc1O)CN(C(=S)NCCc1ccc(Cl)cc1)CCC2 [capsazepine]
- NK1R endocytosis in acinar cells (surrogate marker for SP release) ([1]; cerulein-induced pancreatitis): reduction
- cerulein induced pancreatitis [1]: attenuate

SMILES: COc1cccc(NC(=O)/C=C/c2ccc(Cl)cc2)c1 [SB-366791]
- pancreatic pain behavioral response [2]: markedly reduced

SMILES: CCO [ethanol]
- contractions of bronchi [3]: caused contractions
- multi-unit spike potentials after intra-pancreatic capsaicin ([4]; intragastric ethanol five minutes before capsaicin into pancreatic duct, vs intragastric saline, P<0.05, n=8 rats/group): significant increase
- gastropancreatic nerve activity, ethanol by itself ([4]; intragastric via orogastric lavage after pyloric ligation, before capsaicin): did not increase
- TRPV1 stimulation, capsazepine-sensitive calcium response ([5]; trigeminal and dorsal root ganglia neurons): directly stimulate
- sensitization of dorsal root ganglia neurons to the effects of capsaicin [5]: sensitize
- number of nocifensive behaviors [6]: increased the number of nocifensive behaviors significantly
- release of substance P [7]: induce the release
- broncho-constriction [8]: caused broncho-constriction
- plasma extravasation in the airways [8]: increased plasma extravasation

SMILES: C=C(C)[C@]12C[C@@H](C)[C@@]34O[C@](Cc5ccccc5)(O[C@@H]1[C@@H]3C=C(COC(=O)Cc1ccc(O)c(OC)c1)C[C@]1(O)C(=O)C(C)=C[C@@H]41)O2 [resiniferatoxin]
- afferent nerve signaling to colorectal distention [9]: near complete attenuation; also recorded: nearly complete attenuation
- percentage of gastric emptying after 3 hours ([10]; instilled into the jejunum five weeks prior, P=0.04, n=4): significant increase
- percentage of gastric emptying after 3 hours ([10]; instilled into the stomach five weeks prior, P=0.01, n=4 rats): significant increase
- acute experimental pancreatitis [11]: significant attenuation
- potency relative to capsaicin [12]: 200 times

SMILES: COc1cc(CNC(=O)CCCC/C=C/C(C)C)ccc1O [capsaicin]
- pancreatic edema (water content) [13]: causes pancreatic edema
- acute experimental pancreatitis [11]: significant attenuation
